{"source": "patent US20160025704A1", "about": "“METHODS FOR IDENTIFYING NEUROPROTECTIVE PKC ACTIVATORS” (priority 2013, published 2016)", "key": {"PKC-ε": {"molecular_target": "T1, PKC-ε (Homo sapiens, UniProt Q02156)", "T1 sequence (Q02156 1-737)": "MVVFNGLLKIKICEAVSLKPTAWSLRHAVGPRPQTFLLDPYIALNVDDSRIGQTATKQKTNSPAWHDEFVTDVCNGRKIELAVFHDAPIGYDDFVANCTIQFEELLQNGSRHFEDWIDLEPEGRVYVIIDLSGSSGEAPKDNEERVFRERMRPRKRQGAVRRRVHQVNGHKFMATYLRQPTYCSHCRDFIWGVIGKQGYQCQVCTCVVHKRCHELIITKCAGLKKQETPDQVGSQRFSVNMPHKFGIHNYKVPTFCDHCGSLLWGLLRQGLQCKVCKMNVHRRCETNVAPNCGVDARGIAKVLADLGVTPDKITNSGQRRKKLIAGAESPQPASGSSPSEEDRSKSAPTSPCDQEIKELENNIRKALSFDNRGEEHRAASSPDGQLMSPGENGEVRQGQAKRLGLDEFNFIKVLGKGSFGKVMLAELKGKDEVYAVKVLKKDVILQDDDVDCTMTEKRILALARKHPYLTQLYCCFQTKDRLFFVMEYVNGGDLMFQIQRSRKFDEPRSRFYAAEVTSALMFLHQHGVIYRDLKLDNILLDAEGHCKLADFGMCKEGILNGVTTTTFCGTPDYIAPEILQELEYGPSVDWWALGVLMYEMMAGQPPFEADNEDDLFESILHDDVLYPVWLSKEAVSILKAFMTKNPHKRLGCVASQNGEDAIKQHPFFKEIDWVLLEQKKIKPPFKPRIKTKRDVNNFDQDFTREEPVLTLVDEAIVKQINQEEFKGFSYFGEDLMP", "test": "Activation of purified PKC isozymes", "format": "biochemical", "settings": "purified PKC isozymes (9 ng), preincubated 5 minutes at room temperature", "method": "Protocol: Purified PKC-α, βII, γ, δ, or ε (9 ng) was preincubated for 5 minutes at room temperature with the following PKC activators: (A) DHA-CP6, (B) EPA-CP5, (C) AA-CP4, (D) DCP-LA, (E) “other cyclopropaneated and epoxidized fatty acids, alcohols, and methyl esters.” followed by measurement of PKC activity as described under Experimental Procedures. Results are shown below in FIG. 6."}, "Primary human neurons": {"tested_on": "Primary human neurons", "test": "Synaptogenicity in primary human neurons", "format": "cell-based", "settings": "100 nM", "method": "Protocol: Primary human neurons were treated with either DCPLA-methyl ester (100 nM) or bryostatin-1 (0.27 nM)."}, "HCN-2 cells": {"tested_on": "HCN-2 cells", "test": "Synaptogenesis in HCN-2 cells", "format": "cell-based, human", "settings": "10 days", "method": "FIG. 9 illustrates that activation of PKC-ε induces synaptogenesis in HCN-2 cells. The HCN-2 cell line was derived from cortical tissue removed from a patient undergoing hemispherectomy for intractable seizures associated with Rasmussen's encephalitis. The cells were treated with either DCPLA-methyl ester or bryostatin-1 for 10 days. […] Thus, PKC-ε activation can induce synaptogenesis in both embryonic and adult neuronal cells."}, "Human primary neurons": {"tested_on": "Human primary neurons", "test": "ASPD-induced apoptosis in human primary neurons (Annexin-V Fluorescein)", "format": "cell-based", "settings": "100 nM with 100 nM ASPD, 24 hours", "method": "Protocol: Human primary neurons were grown on chambered slides and treated with vehicle (Control), 100 nM ASPD, ASPD+DCPLA-ME (100 nM), ASPD+bryostatin 1 (0.27 nM) and ASPD+DCPLA-ME (100 nM) or ASPD+bryostatin 1 (0.27 nM) in presence of PKC-ε inhibitor. Following 24 hours of incubation, cells were stained using Annexin-V Fluorescein to detect apoptotic cells and results are shown in FIG. 10 below. […] Data are mean±SEM of three independent experiments. (*p<0.05;** p<0.005 and *** p<0.0005)."}, "[1]": {"tested_on": "neurons in the CA1 hippocampal area", "test": "Apoptotic cell death (TUNEL) in hippocampal CA1 area after ischemic (2-VO)/hypoxic event", "format": "in vivo", "settings": "FIG. 11 legend; dose not given", "method": "Protocol: Bryostatin-1 (15 μg/m^2) was administered through a tail vein (2 doses/week, for 10 doses), starting 24 hours after the end of the ischemic (2-VO)/hypoxic event. Staining for apoptotic cell death in the hippocampal CA1 area was performed 9 day after the last bryostatin-1 dose. […] (C) Quantification of TUNEL staining in stratum radiatum (n=3 animals; n=30 confocal images). Con=control; Bry=bryostatin-1; Isch=cerebral ischemia; ***, P<0.001."}, "[2]": {"tested_on": "BDNF, NGF, NT-3, and GAP-43 mRNA", "test": "NTF mRNA expression in primary hippocampal neurons treated with Aβ (real time PCR)", "format": "cell-based, rat", "settings": "100 nM; 1 μM Aβ; co-treated 24 hours or treated 12 hours after Aβ", "method": "Protocol: Primary hippocampal neurons were treated with control buffer (Untreated), Aβ (1 μM, oligomeric form), or 0.5 nM bryostatin for 24 hours. Some cells were co-treated with Aβ plus 0.5 nM bryostatin (Bryo+Aβ) for 24 hours, or pre-treated with Aβ for 12 hours, washed out, and then treated with bryostatin for additional 12 hours (Aβ+Bryo). Cells were then lysed and total RNA was isolated. Relative expression change of BDNF, NGF, NT-3, and GAP-43 mRNA was quantitatively measured from real time PCR using specific primers against rat BDNF, NGF, NT-3, and GAP-43 mRNA (FIG. 14). A representative gel image is also shown below in FIG. 14 (Mean+SEM, *P<0.05, Aβ compared with untreated; #P<0.05, Bryo+Aβ or Aβ+Bryo compared with Aβ only).\nTest A—DCPLA (500 nM): Primary hippocampal neurons were treated with control buffer (Untreated), Aβ (1 μM, oligomer), or 500 nM DCPLA for 24 hours. Some cells were pre-treated with Aβ for 12 hr and then treated with 500 nM DCPLA for 12 hours (Aβ+DCP-LA), or co-treated with Aβ plus 500 nM DCP-LA (DCP-LA+Aβ) for 24 hours. Total RNA was isolated and relative expression change of BDNF, NGF, NT-3, and GAP-43 mRNA was quantitatively measured from real time RT-PCR using specific primers against rat BDNF, NGF, NT-3, and GAP-43 mRNA (FIG. 15). A representative gel image is also shown below in FIG. 15 (Mean+SEM of three independent experiments, *P<0.05, Aβ compared with untreated; #P<0.05, Aβ+Bryo or Bryo+Aβ compared with Aβ only).\nTest B—DCPLA-methyl ester (100 nM): Primary hippocampal neurons were treated with control buffer (Untreated), 1 μM Aβ, or 100 nM DCP-LA ME (the methyl ester form of DCP-LA) for 24 hours. Some cells were pre-treated with Aβ for 12 hr and then treated with 100 nM DCP-LA ME for 12 hours (Aβ+DCP-LA ME), or co-treated with Aβ plus […] (DCP-LA ME+Aβ) for 24 hours. Total RNA was isolated and relative expression change of BDNF, NGF, NT-3, and GAP-43 mRNA was quantitatively measured from real time RT-PCR using specific primers against rat BDNF, NGF, NT-3, and GAP-43 mRNA (FIG. 16). […]"}}, "data": [{"smiles": "CCCCCC1CC1CC1CC1CCCCCCCC(=O)OC", "note": "(stereo not shown) [DCPLA-methyl ester]", "values": [{"measurement": "PKC-ε specificity versus PKC-α and PKC-δ", "setting": "PKC-ε", "value": "PKC-ε specificity ±15% PKC-α and PKC-δ"}, {"measurement": "co-localized staining of PSD-95 and synaptophysin in puncta (number of synapses)", "setting": "Primary human neurons; 30 days", "value": "an increase in co-localized staining of PSD-95 and synaptophysin in puncta"}, {"measurement": "survival, neuritic branching and connections", "setting": "Primary human neurons; 40 days", "value": "improved survival with increased neuritic branching and connections"}, {"measurement": "differentiation, neuronal branching and punctate colocalization of PSD-95 and synaptophysin", "setting": "HCN-2 cells", "value": "significant differentiation with neuronal branching and increased punctate colocalization of PSD-95 and synaptophysin"}, {"measurement": "protection against ASPD-induced apoptosis", "setting": "Human primary neurons", "value": "protected against ASPD-induced apoptosis"}, {"measurement": "apoptotic cell death in neurons in the CA1 hippocampal area", "setting": "[1]", "value": "prevents apoptotic cell death"}, {"measurement": "NTF mRNA expression decreased by Aβ", "setting": "[2]", "value": "recovers NTF mRNA expression decreased by Aβ"}]}]}
